Laboratory results published in ChEMBL document CHEMBL1201862, “PubChem BioAssay data set” (2004).
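Growth conditions: 96-well plates. Treatment: test compound, 48 hours, 5 concentrations. Analysis: linear interpolation between bracketing concentrations; unreached endpoints set to highest concentration. GI50: concentration for 50% inhibition of growth.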 The source made the active and inactive calls. Cut-off read from the data, not from the text of the source: active = GI50 up to about 1.1 µM and inactive = higher.

Experiments:
Test in all cases: growth of human tumour cells (NCI), 48 h
[1] = system: SF-268
[2] = system: SK-MEL-2
[3] = system: IGROV-1
[4] = system: SN12C
[5] = system: SNB-75
[6] = system: SK-MEL-28
[7] = system: UACC-62
[8] = system: K562
[9] = system: T47D
[10] = system: HOP-62
[11] = system: DU-145
[12] = system: SF-539
[13] = system: SW-620
[14] = system: PC-3
[15] = system: Malme-3M
[16] = system: LOX IMVI
[17] = system: UACC-257
[18] = system: OVCAR-4
[19] = system: MCF7
[20] = system: A498

Measured: GI50

COc1cc(C2SC(=N)Nc3c2c(C)nn3C(=O)c2ccc(Cl)cc2)cc(OC)c1OC (stereo unspecified)
inactive: [1] > 10 µM | [2] > 10 µM | [3] > 10 µM | [4] > 10 µM | [5] > 10 µM | [6] > 10 µM | [7] > 10 µM | [8] > 10 µM | [9] > 10 µM | [10] > 10 µM | [11] > 10 µM | [12] > 10 µM | [13] > 10 µM | [14] > 10 µM | [15] > 10 µM | [16] > 10 µM | [17] > 10 µM | [18] > 10 µM | [19] > 10 µM

Cc1cccc2c1[nH]c1[nH]c(=O)[nH]c(=O)c12
inactive: [1] > 100 µM | [2] > 100 µM | [3] > 100 µM | [4] > 100 µM | [5] 13 µM | [7] > 100 µM | [8] > 100 µM | [9] > 100 µM | [20] > 100 µM | [10] > 100 µM | [11] > 100 µM | [12] > 100 µM | [13] > 100 µM | [15] > 100 µM | [16] > 100 µM | [17] > 100 µM | [18] > 100 µM | [19] > 100 µM

COc1cc(/C=N/NC(=O)c2c(Cl)c(Cl)c(Cl)c(Cl)c2-c2nc3cc(C(=O)c4ccccc4)ccc3[nH]2)ccc1O
inactive: [1] 36.9 µM | [2] 39.3 µM | [3] 47.6 µM | [4] 36.5 µM | [5] 42.1 µM | [6] 49.2 µM | [8] 15.8 µM | [9] 22.6 µM | [10] 38.5 µM | [11] 73.8 µM | [12] 24.9 µM | [13] 34.5 µM | [14] 35.2 µM | [15] 54.8 µM | [16] 50.9 µM | [17] 60.8 µM | [18] 49.1 µM | [19] 26.5 µM

O=c1[nH]c(NCc2ccncc2)nc2[nH]cnc12
inactive: [1] > 100 µM | [2] > 100 µM | [3] > 100 µM | [4] > 100 µM | [5] > 100 µM | [7] > 100 µM | [8] > 100 µM | [9] > 100 µM | [10] > 100 µM | [11] > 100 µM | [13] > 100 µM | [14] > 100 µM | [15] > 100 µM | [16] > 100 µM | [17] > 100 µM | [18] > 100 µM | [19] > 100 µM

COc1ccc2c(c1OC)OCC(CN(C)C)C2=O (stereo unspecified)
inactive: [1] 25.4 µM | [2] 16.7 µM | [3] 18.6 µM | [4] 18.5 µM | [5] 22.3 µM | [6] 17.4 µM | [7] 17.1 µM | [8] 3.63 µM | [9] 19.9 µM | [10] > 51.8 µM | [11] 18.8 µM | [12] 20.4 µM | [13] 7.45 µM | [14] 18.7 µM | [15] 18.5 µM | [16] 14.3 µM | [17] 16.7 µM | [18] 22.9 µM | [19] 8.95 µM

COC(=O)[C@@H]1CN(C(=O)c2ccccc2)C(=O)N1
inactive: [1] > 100 µM | [3] > 100 µM | [4] > 100 µM | [5] > 100 µM | [6] > 100 µM | [7] > 100 µM | [8] > 100 µM | [9] > 100 µM | [20] > 100 µM | [10] > 100 µM | [11] > 100 µM | [12] > 100 µM | [13] > 100 µM | [14] > 100 µM | [15] > 100 µM | [16] > 100 µM | [17] > 100 µM | [18] > 100 µM

CN(C)c1nc2n(CCO)ccnc-2c(=O)n1
inactive: [1] > 100 µM | [2] > 100 µM | [3] > 100 µM | [4] > 100 µM | [5] > 100 µM | [6] > 100 µM | [7] > 100 µM | [8] > 100 µM | [9] > 100 µM | [20] > 100 µM | [10] > 100 µM | [11] > 100 µM | [12] > 100 µM | [13] > 100 µM | [14] > 100 µM | [15] > 100 µM | [16] > 100 µM | [17] > 100 µM | [18] > 100 µM

Nc1ncc(Cc2ccc3c(c2)OCO3)c(N)n1
inactive: [1] > 100 µM | [3] > 100 µM | [4] > 100 µM | [6] > 100 µM | [7] > 100 µM | [8] > 100 µM | [9] 91.4 µM | [20] > 100 µM | [10] > 100 µM | [11] > 100 µM | [12] > 100 µM | [13] > 100 µM | [14] > 100 µM | [15] > 100 µM | [16] > 100 µM | [17] > 100 µM | [18] > 100 µM | [19] > 100 µM
